In the METLIN SMRT retention time set (Domingo-Almenara et al. 2019) one finds RP-LC retention time data, which are given here for 79 compounds.

This data set is described as follows: gradient 5% acetonitrile 3 min, to 50% in 2 min, to 85% in 15 min, held 3 min, 100 µL/min. The following applies: column: Zorbax Extend-C18 2.1 x 50 mm; eluents: water / acetonitrile, 0.1% formic acid. The essentials: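 A Zorbax Extend-C18 column (2.1 × 50 mm, 1.8 μm) run at 100 μL/min with water and acetonitrile, both containing 0.1% formic acid, separated mixtures of ~100 pure standards. The HPLC was coupled to a quadrupole time-of-flight mass spectrometer operated in positive and negative ionization mode, with dead and dwell volumes of 40 μL and 900 μL. Each retention time was taken from a computationally picked adduct peak that was then manually inspected.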
The compound `N#CC1=C(SCC(=O)Nc2nccs2)NC(=O)CC1c1ccccc1F` (centres undefined) yielded an RP-LC retention time of 696 s.
The same measure for `O=C(NCc1csc(-c2cccs2)n1)C1CCN(S(=O)(=O)c2cccc(Cl)c2)CC1`: 927 s.
As for `CC(C)c1ccc2c(c1)-c1ccccc1S(=O)(=O)N2CC(=O)NCCCN1CCOCC1`, the figure is 694 s; as for `O/N=C(/c1ccccc1)c1ccc2c3c(cccc13)CC2`, 1140 s.
The same measure for `C=CCN1C(=O)COc2ccc(-c3nc(NC(=O)CCc4ccccc4)sc3C)cc21`: 1050 s.
`CC(=O)N1CCc2cc(C)c(S(=O)(=O)NCC3CCCO3)cc21` (centres undefined) displayed an RP-LC retention time of 691 s.
The same measure for `O=C(Nc1ccc(F)cc1F)c1ccc(Br)cc1F`: 969 s; for `CN1CCCN(C(=O)C2CC(=O)N(c3ccc4c(c3)CCN4C(=O)C3CC3)C2)CC1` (centres undefined): 564 s.
As for `CC1CCN(C(=O)C2c3ccccc3CCN2CC(=O)NCc2cccc(Cl)c2)CC1` (centres undefined), the figure is 973 s; as for `O=C(CSc1nnc2c3sc(N4CCCC4)nc3ncn12)Nc1ccccc1`, 772 s.
As for `CCN(CC)C(=O)c1c(C)sc2ccn(Cc3ccc(F)cc3)c(=O)c12`, the figure is 828 s; as for `CCNC(=O)c1nnc(-c2ccc(S(=O)(=O)N3CCCC3)cc2)o1`, 753 s.
As for `CCc1ccc(NC(=O)N2CCN(c3cc(C)nc(N4CCOCC4)n3)CC2)cc1`, the RP-LC retention time amounted to 668 s.
As for `CCN1CCN(c2ccc(-c3nc(-c4ccccc4)no3)cn2)CC1`, the figure is 675 s; as for `Cc1ccc(C)c(N2CCN(c3ccnc(SCC(=O)Nc4ccccc4Cl)n3)CC2)c1`, 1130 s; as for `COc1ccc(N2CC(c3noc(-c4ccc(C)cc4C)n3)CC2=O)cc1OC` (centres undefined), 1000 s.
Turning to `CCn1c(=O)n(Cc2ccccn2)c(=O)c2cnc(-c3ccc(OC)cc3)nc21`, the RP-LC retention time was 880 s.
As for `Cc1ccc(-c2cnn(CC(=O)Nc3ccc(Br)cc3)c(=O)n2)cc1`, the figure is 907 s; as for `O=C(C1CCN(c2ncnc3c2nc2n3CCCCC2)CC1)N1CCN(c2ccccn2)CC1`, 592 s; as for `Clc1ccc(-c2csc(N3CCN(c4nc(-c5ccccc5)cs4)CC3)n2)cc1`, 739 s.
As for `Cc1ccc(C)c(-c2cn3ccn(-c4ccc(F)cc4)c(=O)c3n2)c1`, the figure is 895 s; as for `OCCN1CCN(c2ncnc3c2cnn3-c2cccc(Cl)c2)CC1`, 592 s; as for `CCCn1ccc2oc(C)c(C(=O)N3CCN(C4CCCCC4)CC3)c2c1=O`, 612 s.
The same measure for `Cc1cc2c(=O)n(CC(=O)NCc3ccc(Cl)cc3)c3cccnc3n2n1`: 714 s; for `COc1ccc(NC(=O)N2[C@H]3CC[C@@H]2c2cncnc2C3)cc1F`: 649 s; for `COCCN1CCC(N2CCN(S(=O)(=O)c3ccc(C(F)(F)F)cc3)CC2)C1=O` (centres undefined): 625 s.
With `O=C(Cn1ncccc1=O)N1CCN(c2ccc(-c3ccco3)nn2)CC1`, the RP-LC retention time is 552 s.
As for `CCn1c(=O)c(SCC(=O)NCCN(C)Cc2ccccc2)nc2ccccc21`, the figure is 641 s; as for `Cc1nc2cc(-c3noc(-c4cc(Cl)ccc4Cl)n3)ccc2o1`, 1290 s; as for `CSc1ncccc1C(=O)Nc1ccc(OCc2nnc(-c3ccccc3)o2)cc1`, 884 s.
Compound `O=C(Cn1c(=O)c(S(=O)(=O)c2ccccc2)cc2ccccc21)N1CCCC1` showed an RP-LC retention time of 757 s.
In turn, `O=C(NC1CCCCC1)C1CCc2sc(C(=O)N3CCCCC3)cc2C1` (centres undefined) gave an RP-LC retention time of 891 s.
As for `CCn1ccc(C(=O)N2CCC(Cc3nc4cccnc4n3CC(C)C)C2)n1` (centres undefined), the figure is 619 s; as for `CN1c2cc(F)ccc2C(=O)NC12CCN(C(=O)c1ccc(F)cc1)CC2`, 744 s; as for `O=C(Nc1ccc2c(c1)C(=O)N1CCCCC1CCO2)c1ccco1` (centres undefined), 692 s.
The same measure for `CCOC(=O)c1cc(S(=O)(=O)N2CCCC2C(=O)NCc2ccc(C)o2)cn1C` (centres undefined): 846 s; for `CCc1nnc(-c2cc(NS(=O)(=O)CC)c(C)s2)o1`: 810 s; for `CCn1cc(-c2nc(C)c(C(=O)Nc3ccc(F)c(F)c3)s2)c2cccnc21`: 1070 s.
With `Cc1nc(-c2ccncc2)nc2c1CCC(=O)N2CCc1ccccn1`, the RP-LC retention time is 541 s.
As for `Cc1cc(Br)ccc1NC(=O)CCc1nc(C2=CCN(C)CC2)no1`, the figure is 642 s.
The same measure for `Cc1cc(C)n(-c2cc(Nc3ccc(F)cc3)ncn2)n1`: 1010 s; for `COc1cccc(C2C(C(=O)NCCC(C)C)c3ccccc3C(=O)N2C2CC2)c1` (centres undefined): 838 s; for `CCN(CC)C(=O)c1cnc2snc(C)c2c1N1CCC(C(=O)Nc2ccc(OC)c(Cl)c2)CC1`: 900 s.
The same measure for `CSc1nc(N2CCCC2)c2cnn(CCNC(=O)CSc3ccc(F)cc3)c2n1`: 829 s; for `Cc1cc2c(=O)n(CC(=O)Nc3cc(Cl)ccc3C)ccc2s1`: 847 s.
Take `COc1ccc(-c2noc(-c3ccc(=O)n(Cc4c(F)cccc4Cl)c3)n2)cc1`: the RP-LC retention time was 1010 s.
`COc1ccc(-c2nc3ccc(Cl)cn3c2Nc2ccccc2C)cc1` displayed an RP-LC retention time of 832 s.
`Cc1cc(S(=O)(=O)[C@H]2CS(=O)(=O)C[C@@H]2N2CCN(c3ccccc3)CC2)ccc1F` yielded an RP-LC retention time of 994 s.
On to `Cc1cccc(NS(=O)(=O)c2cc3n(c2)CCCNC3=O)c1`, for which the RP-LC retention time stood at 652 s.
The same measure for `CCN(CC)CCNC(=O)c1c(C)[nH]c(/C=C2\C(=O)Nc3ccc(F)cc32)c1C`: 700 s; for `Cc1ccc(NC(=O)N2CCCC(Cn3cnc4cccnc43)C2)c(Cl)c1` (centres undefined): 682 s.
As for `CCC(=O)N1CCc2cc(N3CC(C(=O)NCc4ccccc4C)CC3=O)ccc21` (centres undefined), the figure is 750 s.
The compound `CCc1nnc(-c2ccc3ccn(CC(=O)NCc4cc(OC)c(OC)c(OC)c4)c3c2)o1` displayed an RP-LC retention time of 760 s.
With `CSc1ccc(-c2noc(Cn3cnc4c(cnn4-c4ccc(C)c(Cl)c4)c3=O)n2)cc1`, the RP-LC retention time stood at 1270 s.
As for `Cc1ccoc1C(=O)N[C@@H]1CN(c2ncccn2)C[C@H]1CO`, the figure is 588 s; as for `CCc1cccc(NC(=O)Cc2cn3cc(F)ccc3n2)c1`, 638 s.
As for `CC(C)C(NC(=O)c1ccc(CN2C(=O)C3CCCN3C(=O)c3ccccc32)cc1)c1cccs1` (centres undefined), the figure is 857 s; as for `O=C(NCc1ccco1)c1ccccc1-c1nc(-c2ccccc2)no1`, 888 s.
The same measure for `CCn1cc(-c2nc(C(=O)Nc3ccc(F)c(C)c3)cs2)c2cccnc21`: 987 s.
Take `CCS(=O)(=O)Nc1ccc(-c2noc(CNC(=O)c3ccccc3)n2)cc1`: the RP-LC retention time amounted to 744 s.
Compound `CCn1cc(-c2nc(CC(=O)Nc3ccc4c(c3)OCCO4)cs2)c2cccnc21` came in with an RP-LC retention time of 925 s.
As for `CCCSCCCNc1nc(-c2nnc(-c3ccccc3)o2)nc2ccccc12`, the figure is 1100 s; as for `Cc1cccc(Oc2nccn3c(=O)n(CC(=O)NC(C)CCc4ccccc4)nc23)c1C` (centres undefined), 976 s.
The compound `CC1CCCCN1c1ccn2c(=O)n(CC(=O)Nc3ccc(F)cc3)nc2n1` (centres undefined) registered an RP-LC retention time of 759 s.
`CCOC(=O)C1CCc2sc(NC(=O)Cc3sc(C)nc3C)nc21` (centres undefined): the RP-LC retention time is 639 s.
As for `Cc1cc(C)cc(NC(=O)C2CCc3sc(C(=O)N4CCOCC4)cc3C2)c1` (centres undefined), the figure is 856 s; as for `COc1cccc(C(=O)NCCCn2cccc2)c1`, 749 s; as for `CCC(=O)N1CCc2cc(C)c(S(=O)(=O)NCc3ccco3)cc21`, 664 s.
As for `Clc1ccc(-c2ccc(CNc3ncn[nH]3)o2)c(Cl)c1`, the RP-LC retention time came to 734 s.
As for `Cc1ccn2cc(C(=O)NCc3ccc(F)cc3F)nc2c1`, the RP-LC retention time was found to be 655 s.
The compound `O=C(C1CCCN(c2cnc3nccnc3c2)C1)N1CCN(C2CCCCC2)CC1` (centres undefined) gave an RP-LC retention time of 567 s.
As for `Cc1cc(C(=O)NCCc2ccc(Cl)cc2)n(-c2ccccc2)n1`, the RP-LC retention time stood at 911 s.
As for `Cc1ccc(C)c(NC(=O)N2CC(n3cnnc3-c3ccccc3)C2)c1`, the figure is 712 s; as for `CCCCOC(=O)c1ccc(Nc2nc(C(=O)OCC)nc3ccccc23)cc1`, 1070 s; as for `CCN(CC)S(=O)(=O)c1ccc2c(c1)cc(C(=O)NCCc1c[nH]c3ccc(OC)cc13)n2C`, 964 s.
As for `CCN(Cc1ccccc1)S(=O)(=O)c1c(C)c(-c2nnc(C3CCC3)o2)n(C)c1C`, the figure is 1130 s; as for `Cc1noc(C)c1CCC(=O)N1CC(n2cc(COc3ccc(F)cc3)nn2)C1`, 736 s; as for `Cc1ccccc1NS(=O)(=O)c1cc2n(c1)CCCN(C)C2=O`, 666 s.
Take `Cc1ccc(NC(=O)C2CCCN(c3ncnc4c3nc3n4CCCCC3)C2)cc1` (centres undefined): the RP-LC retention time amounted to 838 s.
